The record followed here is patent US20230393140A1, “BINDING ASSAYS INVOLVING A PLURALITY OF SYNTHETIC COMPOUNDS, TARGETS, AND COUNTER TARGETS” (SRI International, priority 2020, published 2023).

Numbered stars: 1 amine (or outer) side, 2 acyl side, 3 side chain; on linkers, the order of the positions; unused ones are H or OH. Square brackets hold non-standard residues; d marks the D form. Peptide text beside a SMILES is read from it. * marks the point of attachment. 5FAM = O=C1OC2(c3ccc(O)cc3Oc3cc(O)ccc32)c2ccc(C(=O)*)cc21; NHCH2C6H4(4-CH2CONH2) = NC(=O)Cc1ccc(CN*)cc1; X1 = O=C(Cc1ccc(CN[*:1])cc1)[*:2]

The target of the assay is TNFα (Homo sapiens, UniProt P01375). The assay is described as follows: MST binding affinity of resynthesized NNP hits to TNFα. More on the design: purchased R&D Systems, Inc. 210-TA/CF. The settings on record: read-out: KD (nM) [95% conf. int], NNP2 library hit, target TNFα, one-site binding model. As to the method:
Hit binding affinity to various targets were determined using Microscale Thermophoresis (MST). MST experiments were performed on a Monolith NT.115pico (NanoTemper Technologies GmbH, Munich, Germany). Measurements were performed at room temperature, in triplicate with incubation periods of 15, 30 and 45 minutes. […] Targets were labeled using Nanotemper Monolith 2nd Generation Protein Labeling Kits. RED-MALEIMIDE (Maleimide-647-dye) labeling kit was used for K-Ras and RED-NHS (NHS-647-dye) labeling kit was used for IL-6, IL-6R, TNFα and ASGPR. The buffer for the ASGPR contained 20 mM HEPES pH 7.4, 150 mM NaCl, 10 mM MgCl2, 2 mM CaCl2, 0.05% Pluronic F-127, and 1 mM DTT; for IL-6 contained 20 mM HEPES pH 7.4, 150 mM KCl, 10 mM MgCl2, and 0.1% Pluronic F-127; for the soluble IL-6 receptor 20 mM HEPES pH 7.4, 150 mM NaCl, 10 mM MgCl2, and 0.05% Tween-20; for K-Ras 20 mM HEPES pH 7.4, 150 mM NaCl, 10 mM MgCl2, 0.05% Tween-20 and 1 mM DTT; for TNFα 10 mM HEPES pH 7.4, 150 mM NaCl, 10 mM MgCl2, 0.05% Polysorbate-20. Triplicate data was analyzed using MO.AffinityAnalysis software (NanoTemper Technologies GmbH).

Sequence of TNFα (P01375 77-233 limits assumed): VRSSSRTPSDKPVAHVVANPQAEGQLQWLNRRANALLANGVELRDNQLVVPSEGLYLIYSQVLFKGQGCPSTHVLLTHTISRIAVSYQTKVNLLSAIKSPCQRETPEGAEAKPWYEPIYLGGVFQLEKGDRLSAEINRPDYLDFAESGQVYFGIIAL

On to `CC(C)C[C@H](NC(=O)[C@@H](CCCNC(=N)N)NC(=O)[C@@H](Cc1c[nH]c2ccccc12)NC(=O)Cc1ccc(CNC(=O)[C@@H](NC(=O)[C@@H](CCC(=O)O)NC(=O)[C@@H](Cc2ccccc2)NC(=O)Cc2ccc(CNC(=O)[C@H](C)NC(=O)[C@@H](Cc3c[nH]cn3)NC(=O)[C@@H](Cc3c[nH]c4ccccc34)NC(=O)Cc3ccc(CNC(=O)[C@H](CC(C)C)NC(=O)[C@H](NC(=O)[C@@H](CCCCN)NC(=O)c4ccc5c(c4)C(=O)OC54c5ccc(O)cc5Oc5cc(O)ccc54)C(C)C)cc3)cc2)C(C)C)cc1)C(=O)NCc1ccc(CC(=O)N[C@H](Cc2ccc(O)cc2)C(=O)N[C@H](CCCCN)C(=O)N[C@@H](C)C(=O)NCc2ccc(CC(=O)N[C@H](CC(N)=O)C(=O)N[C@H](CCCNC(=N)N)C(=O)N[C@@H](Cc3ccccc3)C(=O)NCc3ccc(CC(=O)N4CCC[C@@H]4C(=O)N[C@@H](C(=O)NCC(=O)NCc4ccc(CC(=O)N5CCC[C@@H]5C(=O)N[C@H](CCCNC(=N)N)C(=O)N[C@@H](C)C(=O)NCc5ccc(CC(=O)N[C@H](C)C(=O)N[C@H](CCCCN)C(=O)NCC(=O)NCc6ccc(CC(N)=O)cc6)cc5)cc4)C(C)C)cc3)cc2)cc1` [TNF-39-8] (5FAM-[dK][dV]L[X1][dW][dH]A[X1][dF][dE]V[X1][dW][dR]L[X1][dY][dK]A[X1][dN][dR]F[X1][dP][dV]G[X1][dP][dR]A[X1][dA][dK]G-{NHCH2C6H4(4-CH2CONH2)}), for which the Kd was determined as 270 nM.
`CC(C)C[C@H](NC(=O)[C@@H](CCCNC(=N)N)NC(=O)CNC(=O)Cc1ccc(CNC(=O)[C@H](CC(C)C)NC(=O)[C@H](NC(=O)[C@@H](CO)NC(=O)c2ccc3c(c2)C(=O)OC32c3ccc(O)cc3Oc3cc(O)ccc32)C(C)C)cc1)C(=O)NCc1ccc(CC(=O)N[C@H](Cc2ccccc2)C(=O)N[C@H](CCC(=O)O)C(=O)N[C@H](C(=O)NCc2ccc(CC(=O)N[C@H](Cc3ccccc3)C(=O)N[C@H](CCCCN)C(=O)N[C@@H](CC(C)C)C(=O)NCc3ccc(CC(=O)N[C@H](Cc4ccc(O)cc4)C(=O)N[C@H](CCCCN)C(=O)N[C@@H](C)C(=O)NCc4ccc(CC(=O)N[C@H](CCC(=O)O)C(=O)N[C@H](Cc5c[nH]c6ccccc56)C(=O)N[C@@H](C)C(=O)NCc5ccc(CC(=O)N[C@H](C)C(=O)N[C@H](CCCNC(=N)N)C(=O)N[C@@H](CC(C)C)C(=O)NCc6ccc(CC(=O)N[C@H](CCC(=O)O)C(=O)N[C@H](Cc7ccc(O)cc7)C(=O)N[C@@H](Cc7ccccc7)C(=O)NCc7ccc(CC(=O)N[C@H](Cc8ccc(O)cc8)C(=O)N[C@H](CCCNC(=N)N)C(=O)N[C@@H](Cc8ccccc8)C(=O)NCc8ccc(CC(N)=O)cc8)cc7)cc6)cc5)cc4)cc3)cc2)C(C)C)cc1` [TNF-39-13] (5FAM-[dS][dV]L[X1]G[dR]L[X1][dF][dE]V[X1][dF][dK]L[X1][dY][dK]A[X1][dE][dW]A[X1][dA][dR]L[X1][dE][dY]F[X1][dY][dR]F-{NHCH2C6H4(4-CH2CONH2)}): the Kd is 40 nM.
On to `CC(C)C[C@H](NC(=O)[C@@H](CCCCN)NC(=O)[C@@H](Cc1c[nH]c2ccccc12)NC(=O)Cc1ccc(CNC(=O)[C@@H](NC(=O)CNC(=O)[C@H]2CCCN2C(=O)Cc2ccc(CNC(=O)[C@H](CC(C)C)NC(=O)[C@@H](Cc3ccc(O)cc3)NC(=O)[C@@H](CCCNC(=N)N)NC(=O)Cc3ccc(CNC(=O)[C@H](Cc4ccccc4)NC(=O)[C@@H](CCCCN)NC(=O)[C@@H](C)NC(=O)Cc4ccc(CNC(=O)[C@H](C)NC(=O)[C@@H](CCCNC(=N)N)NC(=O)[C@@H](Cc5ccccc5)NC(=O)Cc5ccc(CNC(=O)[C@@H](NC(=O)[C@@H](CCC(=O)O)NC(=O)[C@@H](Cc6ccccc6)NC(=O)Cc6ccc(CNC(=O)[C@H](CC(C)C)NC(=O)[C@@H](CCCNC(=N)N)NC(=O)[C@@H](CC(C)C)NC(=O)Cc7ccc(CNC(=O)[C@H](Cc8ccccc8)NC(=O)[C@@H](CC(C)C)NC(=O)[C@H](NC(=O)c8ccc9c(c8)C(=O)OC98c9ccc(O)cc9Oc9cc(O)ccc98)[C@H](C)O)cc7)cc6)C(C)C)cc5)cc4)cc3)cc2)C(C)C)cc1)C(=O)NCc1ccc(CC(=O)N[C@H](Cc2ccc(O)cc2)C(=O)N[C@H](CCCNC(=N)N)C(=O)N[C@@H](Cc2ccccc2)C(=O)NCc2ccc(CC(N)=O)cc2)cc1` [TNF-39-3] (5FAM-[dT][dL]F[X1][dL][dR]L[X1][dF][dE]V[X1][dF][dR]A[X1][dA][dK]F[X1][dR][dY]L[X1][dP]GV[X1][dW][dK]L[X1][dY][dR]F-{NHCH2C6H4(4-CH2CONH2)}), for which the Kd turned out to be 130 nM.
For the compound `CC(C)C[C@H](NC(=O)[C@@H](CCCNC(=N)N)NC(=O)[C@@H](C)NC(=O)Cc1ccc(CNC(=O)[C@H](Cc2ccccc2)NC(=O)[C@@H](CCCNC(=N)N)NC(=O)[C@@H](CC(N)=O)NC(=O)Cc2ccc(CNC(=O)[C@H](Cc3ccccc3)NC(=O)[C@@H](CCCCN)NC(=O)[C@@H](C)NC(=O)Cc3ccc(CNC(=O)[C@H](C)NC(=O)[C@@H](CCCNC(=N)N)NC(=O)[C@@H](Cc4ccccc4)NC(=O)Cc4ccc(CNC(=O)[C@H](CC(C)C)NC(=O)[C@@H](CCCCN)NC(=O)[C@@H](CC(C)C)NC(=O)Cc5ccc(CNC(=O)[C@H](CC(C)C)NC(=O)[C@@H](CCCNC(=N)N)NC(=O)[C@@H](CC(C)C)NC(=O)Cc6ccc(CNC(=O)[C@H](CC(C)C)NC(=O)[C@@H](CC(C)C)NC(=O)[C@@H](Cc7ccc(O)cc7)NC(=O)c7ccc8c(c7)C(=O)OC87c8ccc(O)cc8Oc8cc(O)ccc87)cc6)cc5)cc4)cc3)cc2)cc1)C(=O)NCc1ccc(CC(=O)N[C@H](Cc2c[nH]c3ccccc23)C(=O)N[C@H](CCCCN)C(=O)N[C@@H](CC(C)C)C(=O)NCc2ccc(CC(=O)N3CCC[C@@H]3C(=O)N[C@H](C)C(=O)N[C@@H](C)C(=O)NCc3ccc(CC(N)=O)cc3)cc2)cc1` [TNF-31-14] (5FAM-[dY][dL]L[X1][dL][dR]L[X1][dL][dK]L[X1][dF][dR]A[X1][dA][dK]F[X1][dN][dR]F[X1][dA][dR]L[X1][dW][dK]L[X1][dP][dA]A-{NHCH2C6H4(4-CH2CONH2)}), the Kd came out at 35 nM.
With `CC(C)C[C@H](NC(=O)[C@@H](CCCNC(=N)N)NC(=O)CNC(=O)Cc1ccc(CNC(=O)[C@H](CC(C)C)NC(=O)[C@H](NC(=O)[C@@H](CCCCN)NC(=O)c2ccc3c(c2)C(=O)OC32c3ccc(O)cc3Oc3cc(O)ccc32)C(C)C)cc1)C(=O)NCc1ccc(CC(=O)N[C@H](Cc2ccccc2)C(=O)N[C@H](CCC(=O)O)C(=O)N[C@H](C(=O)NCc2ccc(CC(=O)N[C@H](Cc3ccccc3)C(=O)N[C@H](CCCNC(=N)N)C(=O)N[C@@H](C)C(=O)NCc3ccc(CC(=O)N[C@H](Cc4c[nH]c5ccccc45)C(=O)N[C@H](CCCNC(=N)N)C(=O)N[C@H](C(=O)NCc4ccc(CC(=O)N[C@H](CCC(=O)O)C(=O)N[C@H](CCCNC(=N)N)C(=O)N[C@@H](CC(C)C)C(=O)NCc5ccc(CC(=O)N[C@H](Cc6c[nH]cn6)C(=O)N[C@H](CCC(=O)O)C(=O)N[C@@H](CC(C)C)C(=O)NCc6ccc(CC(=O)N[C@H](CCCCN)C(=O)N[C@H](Cc7ccccc7)C(=O)N[C@@H](Cc7ccccc7)C(=O)NCc7ccc(CC(=O)N[C@H](Cc8ccc(O)cc8)C(=O)N[C@H](CCCNC(=N)N)C(=O)N[C@@H](Cc8ccccc8)C(=O)NCc8ccc(CC(N)=O)cc8)cc7)cc6)cc5)cc4)C(C)C)cc3)cc2)C(C)C)cc1` [TNF-39-15] (5FAM-[dK][dV]L[X1]G[dR]L[X1][dF][dE]V[X1][dF][dR]A[X1][dW][dR]V[X1][dE][dR]L[X1][dH][dE]L[X1][dK][dF]F[X1][dY][dR]F-{NHCH2C6H4(4-CH2CONH2)}) the figure was 46 nM.
`CC(C)C[C@H](NC(=O)[C@@H](CCCCN)NC(=O)[C@@H](CC(C)C)NC(=O)Cc1ccc(CNC(=O)[C@H](CC(C)C)NC(=O)[C@@H](CCCNC(=N)N)NC(=O)[C@@H](CC(C)C)NC(=O)Cc2ccc(CNC(=O)[C@H](CC(C)C)NC(=O)[C@@H](CC(C)C)NC(=O)[C@@H](Cc3ccc(O)cc3)NC(=O)c3ccc4c(c3)C(=O)OC43c4ccc(O)cc4Oc4cc(O)ccc43)cc2)cc1)C(=O)NCc1ccc(CC(=O)N[C@H](Cc2ccccc2)C(=O)N[C@H](CCCNC(=N)N)C(=O)N[C@@H](C)C(=O)NCc2ccc(CC(=O)N[C@H](C)C(=O)N[C@H](CCCCN)C(=O)N[C@@H](Cc3ccccc3)C(=O)NCc3ccc(CC(=O)N[C@H](Cc4ccccc4)C(=O)N[C@@H](C(=O)N[C@@H](C)C(=O)NCc4ccc(CC(=O)N5CCC[C@@H]5C(=O)N[C@@H](C(=O)NCC(=O)NCc5ccc(CC(=O)N[C@@H](C(=O)N[C@H](Cc6c[nH]cn6)C(=O)N[C@@H](CC(C)C)C(=O)NCc6ccc(CC(=O)N[C@@H](C(=O)N[C@H](CO)C(=O)N[C@H](C(=O)NCc7ccc(CC(N)=O)cc7)C(C)C)[C@H](C)O)cc6)[C@H](C)O)cc5)C(C)C)cc4)[C@H](C)O)cc3)cc2)cc1` [TNF-39-14] (5FAM-[dY][dL]L[X1][dL][dR]L[X1][dL][dK]L[X1][dF][dR]A[X1][dA][dK]F[X1][dF][dT]A[X1][dP][dV]G[X1][dT][dH]L[X1][dT][dS]V-{NHCH2C6H4(4-CH2CONH2)}): the Kd was 36 nM.
